# Experimental data reported in US9187411B2, “Leukotriene B4 antagonist compound” (Eli Lilly and Company, priority 2012, dated 2015).
# Test system: CaCl2-induced abdominal aortic aneurysm
# Assay: CaCl2-induced AAA animal efficacy model, mice
# Type: in vivo, 129SvEv mice
# Details: 28 days, aortic lumenal perimeter
# Excerpt: A targeted application of a calcium chloride solution to the mouse aorta induces vessel dilatation Chiou et al. J. Surg. Res. (2001), 99: 371-376; Lomgo et al. J. Clin. Invest. (2002), 110: 625-632. Two weeks after treatment, the vessel dilatation compared to the original vessel diameter becomes statistically significant, with up to 75% increase of aortic lumenal perimeter after 4 weeks. Calcium precipitates have been localized primarily within the elastic network of the media. Disruption of this structure by the calcium-elastic tissue complex weakens the vessel wall, contributing to aneurysm formation. This injury also serves as a proinflammatory stimulus, recruiting neutrophils, lymphocytes, monocytes, and mast cells.
# Mice: 129SvEv males, 7 weeks of age, are acquired from Taconic Farms, Germantown, N.Y., USA.
# Aneurysm Induction Model: All procedures are performed in accordance with Eli Lilly and Company Institutional Animal Care and Use guidelines. Upon their arrival, animals have a one week acclimation period during which they have ad libitum access to standard rodent chow (Purina #2014) and house water. Following the acclimation period, animals are anesthetized with isoflurane, and a laparotomy is performed for the CaCl2-stimulated induction of the abdominal aortic aneurysm (AAA). […] Interior cross sectional lumenal perimeter measurements (mm) are collected at that point to assess efficacy and statistically analyzed with JMP® 7 software (Cary, N.C.). Statistical Analysis: Measurements of lumenal perimeter are expressed as mean values±SE. […]
# The efficacy signal window in the CaCl2-induced abdominal aortic aneurysm model is determined by the lumenal perimeter of the aorta in mice treated with saline-soaked gauze followed by 4-weeks dosing with vehicle that determines 100% efficacy (“Sham Vehicle”) and the lumenal perimeter of the aorta in mice treated with CaCl2-soaked gauze followed by 4-weeks dosing with vehicle (“Vehicle”) that determines 0% efficacy.
compound,measurement,setting,value
"CCCc1c(NC(=O)CC(C)(C)C(=O)[O-])cccc1OCCCOc1cc(O)c(-c2ccc(F)cc2)cc1CC.[Na+] [Example 2, Sodium 4-[[3-[3-[2-ethyl-4-(4-fluorophenyl)-5-hydroxy-phenoxy]propoxy]-2-propyl-phenyl]amino]-2,2-dimethyl-4-oxo-butanoate]",% Reduced (±S.E.) of AAA,10 mg/kg b.i.d. oral gavage,41% ± 13
same,% Reduced (±S.E.) of AAA,30 mg/kg b.i.d. oral gavage,48% ± 10
same,% Reduced (±S.E.) of AAA,60 mg/kg b.i.d. oral gavage,58% ± 13
